Measurements from the NIST ThermoML archive (doi:10.1021/acs.jced.5b00407).

Experiments:
[1] = mn = molality of the nth substance listed, in mol/kg; conditions: 101.3 kPa, Liquid; for viscosity: Capillary tube (Ostwald / Ubbelohde) method; for mass density: Vibrating tube method
[2] = refractive index (Na D-line) (dimensionless); mn = molality of the nth substance listed, in mol/kg; conditions: 101.3 kPa, Liquid, Standard Abbe refractometry

O=C([O-])[C@H](O)[C@@H](O)[C@H](O[C@@H]1O[C@H](CO)[C@H](O)[C@H](O)[C@H]1O)[C@H](O)CO.[Na+] [sodium lactobionate] + O
Conditions | mass density, [1] [kg/m3] | refractive index, [2] | viscosity, [1] [mPa·s]
288.15 K, m1 = 0.0251 | – | – | 1.157
288.15 K, m1 = 0.0502 | 1010.5 | – | 1.177
288.15 K, m1 = 0.0753 | 1015.2 | – | 1.211
288.15 K, m1 = 0.1 | 1020.1 | – | 1.257
288.15 K, m1 = 0.126 | 1024.5 | – | 1.286
288.15 K, m1 = 0.151 | 1029.1 | – | 1.332
288.15 K, m1 = 0.176 | 1034.1 | – | 1.374
288.15 K, m1 = 0.201 | 1039 | – | 1.432
293.15 K, m1 = 0.0251 | – | 1.3331 | 1.018
293.15 K, m1 = 0.0502 | 1009.1 | 1.3344 | 1.036
293.15 K, m1 = 0.0753 | 1013.9 | 1.336 | 1.066
293.15 K, m1 = 0.1 | 1018.9 | 1.3376 | 1.106
293.15 K, m1 = 0.126 | 1023.3 | 1.3392 | 1.132
293.15 K, m1 = 0.151 | 1028.1 | 1.3406 | 1.171
293.15 K, m1 = 0.176 | 1033 | 1.3421 | 1.208
293.15 K, m1 = 0.201 | 1037.7 | 1.3435 | 1.26
298.15 K, m1 = 0.0251 | – | 1.3326 | 0.9041
298.15 K, m1 = 0.0502 | 1007.6 | 1.3339 | 0.9201
298.15 K, m1 = 0.0753 | 1012.6 | 1.3354 | 0.9457
298.15 K, m1 = 0.1 | 1017.7 | 1.337 | 0.9824
298.15 K, m1 = 0.126 | 1022.1 | 1.3385 | 1.006
298.15 K, m1 = 0.151 | 1026.9 | 1.34 | 1.041
298.15 K, m1 = 0.176 | 1031.8 | 1.3415 | 1.074
298.15 K, m1 = 0.201 | 1036.4 | 1.343 | 1.119
303.15 K, m1 = 0.0251 | – | 1.3321 | 0.8091
303.15 K, m1 = 0.0502 | 1006.2 | 1.3334 | 0.8233
303.15 K, m1 = 0.0753 | 1011.2 | 1.3348 | 0.8464
303.15 K, m1 = 0.1 | 1016.4 | 1.3364 | 0.8796
303.15 K, m1 = 0.126 | 1020.8 | 1.3378 | 0.9001
303.15 K, m1 = 0.151 | 1025.5 | 1.3393 | 0.9321
303.15 K, m1 = 0.176 | 1030.3 | 1.3409 | 0.9614
303.15 K, m1 = 0.201 | 1035.1 | 1.3425 | 1.002
308.15 K, m1 = 0.0251 | – | 1.3316 | 0.7289
308.15 K, m1 = 0.0502 | 1004.5 | 1.3328 | 0.7415
308.15 K, m1 = 0.0753 | 1009.7 | 1.3342 | 0.7623
308.15 K, m1 = 0.1 | 1014.9 | 1.3357 | 0.7921
308.15 K, m1 = 0.126 | 1019.4 | 1.3371 | 0.8111
308.15 K, m1 = 0.151 | 1023.9 | 1.3387 | 0.8399
308.15 K, m1 = 0.176 | 1028.8 | 1.3403 | 0.8655
308.15 K, m1 = 0.201 | 1033.5 | 1.342 | 0.9029
313.15 K, m1 = 0.0251 | – | 1.331 | 0.6612
313.15 K, m1 = 0.0502 | 1003.1 | 1.3322 | 0.6729
313.15 K, m1 = 0.0753 | 1008.1 | 1.3335 | 0.692
313.15 K, m1 = 0.1 | 1013.3 | 1.335 | 0.7187
313.15 K, m1 = 0.126 | 1017.8 | 1.3364 | 0.7357
313.15 K, m1 = 0.151 | 1022.1 | 1.338 | 0.7622
313.15 K, m1 = 0.176 | 1027.2 | 1.3397 | 0.7851
313.15 K, m1 = 0.201 | 1031.8 | 1.3415 | 0.8191
318.15 K, m1 = 0.0251 | – | 1.3304 | 0.6029
318.15 K, m1 = 0.0502 | 1001.6 | 1.3316 | 0.6136
318.15 K, m1 = 0.0753 | 1006.5 | 1.3329 | 0.6313
318.15 K, m1 = 0.1 | 1011.5 | 1.3343 | 0.6556
318.15 K, m1 = 0.126 | 1015.9 | 1.3357 | 0.6711
318.15 K, m1 = 0.151 | 1020.5 | 1.3373 | 0.6951
318.15 K, m1 = 0.176 | 1025.3 | 1.3391 | 0.7157
318.15 K, m1 = 0.201 | 1030 | 1.3409 | 0.7469
323.15 K, m1 = 0.0251 | – | 1.3297 | 0.5523
323.15 K, m1 = 0.0502 | 999.8 | 1.3309 | 0.5625
323.15 K, m1 = 0.0753 | 1004.7 | 1.3322 | 0.5789
323.15 K, m1 = 0.1 | 1009.5 | 1.3336 | 0.6009
323.15 K, m1 = 0.126 | 1013.9 | 1.3349 | 0.6151
323.15 K, m1 = 0.151 | 1018.4 | 1.3365 | 0.6372
323.15 K, m1 = 0.176 | 1023.2 | 1.3384 | 0.6565
323.15 K, m1 = 0.201 | 1028 | 1.3404 | 0.6849
